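All cell lines were grown in 96-well plates and treated with compound for 48 hours. Here, GI50 denotes the concentration required for 50% inhibition of growth. TGI marks complete inhibition of growth.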
Assays:
Assay in all cases: NCI-60 cell line screen, 48 h
SK-OV-3 ovarian = tested on: SK-OV-3 ovarian
OVCAR-5 ovarian = tested on: OVCAR-5 ovarian
U251 CNS = tested on: U251 CNS
SF-539 CNS = tested on: SF-539 CNS
HCC-2998 colon = tested on: HCC-2998 colon
IGROV1 ovarian = tested on: IGROV1 ovarian
NCI-H522 lung = tested on: NCI-H522 lung
KM12 colon = tested on: KM12 colon
NCI-H460 lung = tested on: NCI-H460 lung
SF-268 CNS = tested on: SF-268 CNS
SK-MEL-28 melanoma = tested on: SK-MEL-28 melanoma
A498 renal = tested on: A498 renal
NCI-H226 lung = tested on: NCI-H226 lung
UACC-257 melanoma = tested on: UACC-257 melanoma
RXF 393 renal = tested on: RXF 393 renal
SNB-19 CNS = tested on: SNB-19 CNS
HOP-62 NSCLC = tested on: HOP-62 NSCLC
NCI/ADR-RES ovarian = tested on: NCI/ADR-RES ovarian
M14 melanoma = tested on: M14 melanoma
LOX IMVI melanoma = tested on: LOX IMVI melanoma
K-562 leukemia = tested on: K-562 leukemia
BT-549 breast = tested on: BT-549 breast
RPMI-8226 leukemia = tested on: RPMI-8226 leukemia
HS 578T breast = tested on: HS 578T breast
UACC-62 melanoma = tested on: UACC-62 melanoma
EKVX NSCLC = tested on: EKVX NSCLC
MALME-3M melanoma = tested on: MALME-3M melanoma
SR leukemia = tested on: SR leukemia
CAKI-1 renal = tested on: CAKI-1 renal
T-47D breast = tested on: T-47D breast
PC-3 prostate = tested on: PC-3 prostate
HOP-92 NSCLC = tested on: HOP-92 NSCLC
786-0 renal = tested on: 786-0 renal
HCT-116 colon = tested on: HCT-116 colon
SF-295 CNS = tested on: SF-295 CNS
SK-MEL-5 melanoma = tested on: SK-MEL-5 melanoma
SN12C renal = tested on: SN12C renal
COLO 205 colon = tested on: COLO 205 colon
HCT-15 colon = tested on: HCT-15 colon
OVCAR-4 ovarian = tested on: OVCAR-4 ovarian
TK-10 renal = tested on: TK-10 renal
CCRF-CEM leukemia = tested on: CCRF-CEM leukemia
A549 NSCLC = tested on: A549 NSCLC
SW-620 colon = tested on: SW-620 colon
DU-145 prostate = tested on: DU-145 prostate
UO-31 renal = tested on: UO-31 renal
ACHN renal = tested on: ACHN renal
SK-MEL-2 melanoma = tested on: SK-MEL-2 melanoma
MOLT-4 leukemia = tested on: MOLT-4 leukemia
OVCAR-8 ovarian = tested on: OVCAR-8 ovarian
OVCAR-3 ovarian = tested on: OVCAR-3 ovarian
SNB-75 CNS = tested on: SNB-75 CNS
MCF7 breast = tested on: MCF7 breast
HL-60(TB) leukemia = tested on: HL-60(TB) leukemia
HT29 colon = tested on: HT29 colon
MDA-MB-435 = tested on: MDA-MB-435
MDA-MB-231 breast = tested on: MDA-MB-231 breast

## CNC(=O)c1cc(-n2ccc3cc(NC(=O)Nc4ccc(N5CCOCC5)c(C(F)(F)F)c4)ccc32)ccn1
SK-OV-3 ovarian
  GI50: 26.7 µM
  TGI: > 33.3 µM
OVCAR-5 ovarian
  GI50: 14.6 µM
  TGI: > 33.3 µM
U251 CNS
  GI50: 3.23 µM
  TGI: > 33.3 µM
SF-539 CNS
  GI50: 1.41 µM
  TGI: > 33.3 µM
HCC-2998 colon
  GI50: 11.5 µM
  TGI: > 33.3 µM
IGROV1 ovarian
  GI50: 3.87 µM
  TGI: > 33.3 µM
NCI-H522 lung
  GI50: 2.9 µM
  TGI: > 33.3 µM
KM12 colon
  GI50: 0.159 µM
  TGI: > 33.3 µM
NCI-H460 lung
  GI50: 4.39 µM
  TGI: > 33.3 µM
SF-268 CNS
  GI50: 27.2 µM
  TGI: > 33.3 µM
SK-MEL-28 melanoma
  GI50: 11.7 µM
  TGI: > 33.3 µM
A498 renal
  GI50: > 33.3 µM
  TGI: > 33.3 µM
NCI-H226 lung
  GI50: 3.69 µM
  TGI: > 33.3 µM
UACC-257 melanoma
  GI50: 8.89 µM
  TGI: > 33.3 µM
RXF 393 renal
  GI50: 0.595 µM
  TGI: 1.62 µM
SNB-19 CNS
  GI50: 15 µM
  TGI: > 33.3 µM
HOP-62 NSCLC
  GI50: 1.52 µM
  TGI: 14.6 µM
NCI/ADR-RES ovarian
  GI50: 7.51 µM
  TGI: > 33.3 µM
M14 melanoma
  GI50: 3.11 µM
  TGI: > 33.3 µM
LOX IMVI melanoma
  GI50: 0.251 µM
  TGI: > 33.3 µM
K-562 leukemia
  GI50: 1.24 µM
  TGI: > 33.3 µM
BT-549 breast
  GI50: 1.27 µM
  TGI: 8.9 µM
RPMI-8226 leukemia
  GI50: 1.04 µM
  TGI: 3.11 µM
HS 578T breast
  GI50: 1.85 µM
  TGI: > 33.3 µM
UACC-62 melanoma
  GI50: 1.27 µM
  TGI: 14.7 µM
EKVX NSCLC
  GI50: > 33.3 µM
  TGI: > 33.3 µM
MALME-3M melanoma
  GI50: 3.89 µM
  TGI: > 33.3 µM
SR leukemia
  GI50: 1.88 µM
  TGI: > 33.3 µM
CAKI-1 renal
  GI50: 10 µM
  TGI: > 33.3 µM
T-47D breast
  GI50: 0.907 µM
  TGI: 15.5 µM
PC-3 prostate
  GI50: 1.31 µM
  TGI: > 33.3 µM
HOP-92 NSCLC
  GI50: 2.11 µM
  TGI: > 33.3 µM
786-0 renal
  GI50: 2.89 µM
  TGI: > 33.3 µM
HCT-116 colon
  GI50: 2.09 µM
  TGI: > 33.3 µM
SF-295 CNS
  GI50: 0.938 µM
  TGI: 3.24 µM
SK-MEL-5 melanoma
  GI50: 1.32 µM
  TGI: 7.58 µM
SN12C renal
  GI50: 9.21 µM
  TGI: > 33.3 µM
COLO 205 colon
  GI50: 2.09 µM
  TGI: > 33.3 µM
HCT-15 colon
  GI50: 1.93 µM
  TGI: > 33.3 µM
OVCAR-4 ovarian
  GI50: 7.76 µM
  TGI: > 33.3 µM
TK-10 renal
  GI50: 27.6 µM
  TGI: > 33.3 µM
CCRF-CEM leukemia
  GI50: 1.53 µM
  TGI: > 33.3 µM
A549 NSCLC
  GI50: 5.15 µM
  TGI: > 33.3 µM
SW-620 colon
  GI50: 8.36 µM
  TGI: > 33.3 µM
DU-145 prostate
  GI50: 10.4 µM
  TGI: > 33.3 µM
UO-31 renal
  GI50: 3.55 µM
  TGI: > 33.3 µM
ACHN renal
  GI50: 5.69 µM
  TGI: > 33.3 µM
SK-MEL-2 melanoma
  GI50: 11.3 µM
  TGI: > 33.3 µM
MOLT-4 leukemia
  GI50: 1.93 µM
  TGI: > 33.3 µM
OVCAR-8 ovarian
  GI50: 4.5 µM
  TGI: > 33.3 µM
OVCAR-3 ovarian
  GI50: 6.48 µM
  TGI: > 33.3 µM
SNB-75 CNS
  GI50: 6.38 µM
  TGI: > 33.3 µM
MCF7 breast
  GI50: 1.7 µM
  TGI: > 33.3 µM
HL-60(TB) leukemia
  GI50: 1.62 µM
  TGI: > 33.3 µM
HT29 colon
  GI50: 2.01 µM
  TGI: > 33.3 µM
MDA-MB-435
  GI50: 5.73 µM
  TGI: > 33.3 µM
MDA-MB-231 breast
  GI50: 17.9 µM
  TGI: > 33.3 µM
